Measurements from PubChem BioAssay (NCI).
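Test compounds were applied to cells in 96-well plates for 48 hours at 5 doses. TGI is the concentration that stops growth completely.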

Columns and labels:
Experiment in all cases: NCI anticancer screen, dose series, 48 h
[1] = tested on: A498 renal
[2] = tested on: A549 NSCLC
[3] = tested on: ACHN renal
[4] = tested on: BT-549 breast
[5] = tested on: CAKI-1 renal
[6] = tested on: CCRF-CEM leukemia
[7] = tested on: DU-145 prostate
[8] = tested on: EKVX NSCLC
[9] = tested on: HCC-2998 colon
[10] = tested on: HCT-116 colon
[11] = tested on: HCT-15 colon
[12] = tested on: HL-60(TB) leukemia
[13] = tested on: HOP-62 NSCLC
[14] = tested on: HOP-92 NSCLC
[15] = tested on: HS 578T breast
[16] = tested on: HT29 colon
[17] = tested on: IGROV1 ovarian
[18] = tested on: K-562 leukemia
[19] = tested on: KM12 colon
[20] = tested on: LOX IMVI melanoma
[21] = tested on: M14 melanoma
[22] = tested on: MALME-3M melanoma
[23] = tested on: MCF7 breast
[24] = tested on: MDA-MB-231 breast
[25] = tested on: MDA-MB-435
[26] = tested on: MDA-N
[27] = tested on: MOLT-4 leukemia
[28] = tested on: NCI-H226 lung
[29] = tested on: NCI-H23 lung
[30] = tested on: NCI-H460 lung
[31] = tested on: NCI-H522 lung
[32] = tested on: OVCAR-3 ovarian
[33] = tested on: OVCAR-5 ovarian
[34] = tested on: RPMI-8226 leukemia
[35] = tested on: RXF 393 renal
[36] = tested on: SF-268 CNS
[37] = tested on: SF-539 CNS
[38] = tested on: SK-MEL-2 melanoma
[39] = tested on: SK-MEL-28 melanoma
[40] = tested on: SK-MEL-5 melanoma
[41] = tested on: SK-OV-3 ovarian
[42] = tested on: SN12C renal
[43] = tested on: SNB-19 CNS
[44] = tested on: SNB-75 CNS
[45] = tested on: SR leukemia
[46] = tested on: SW-620 colon
[47] = tested on: T-47D breast
[48] = tested on: TK-10 renal
[49] = tested on: U251 CNS
[50] = tested on: UACC-257 melanoma
[51] = tested on: UACC-62 melanoma
[52] = tested on: UO-31 renal

Measured: TGI

CCOC(=O)NC(NCC(O)c1ccccc1)(C(F)(F)F)C(F)(F)F (configuration not stated)
> 100 µM: [1] | [2] | [3] | [4] | [5] | [6] | [7] | [8] | [9] | [10] | [11] | [12] | [13] | [14] | [15] | [16] | [17] | [18] | [19] | [20] | [21] | [22] | [23] | [24] | [25] | [26] | [27] | [28] | [29] | [30] | [31] | [32] | [33] | [34] | [35] | [36] | [37] | [38] | [39] | [40] | [41] | [42] | [43] | [44] | [45] | [46] | [47] | [48] | [49] | [50] | [51] | [52]
